Assay results taken from article PMC8213057, “Targeting ALK2: An Open Science Approach to Developing Therapeutics for the Treatment of Diffuse Intrinsic Pontine Glioma” (Journal of Medicinal Chemistry, 2020).
Where “and” joins values, the source holds several entries; their conditions need not be identical. Equal values may be shown once.

Tests used:
BRAF = target: T1, BRAF (Homo sapiens, UniProt P15056); experiment: 375-member kinase panel; format: biochemical; details: Run 1, Run 2; for % enzyme activity: 1 μM; for remaining activity at 1 µM: read-out: % enzyme activity, 1 μM
T1 construct: purchased Reaction Biology Corporation
T1 sequence (P15056 whole entry): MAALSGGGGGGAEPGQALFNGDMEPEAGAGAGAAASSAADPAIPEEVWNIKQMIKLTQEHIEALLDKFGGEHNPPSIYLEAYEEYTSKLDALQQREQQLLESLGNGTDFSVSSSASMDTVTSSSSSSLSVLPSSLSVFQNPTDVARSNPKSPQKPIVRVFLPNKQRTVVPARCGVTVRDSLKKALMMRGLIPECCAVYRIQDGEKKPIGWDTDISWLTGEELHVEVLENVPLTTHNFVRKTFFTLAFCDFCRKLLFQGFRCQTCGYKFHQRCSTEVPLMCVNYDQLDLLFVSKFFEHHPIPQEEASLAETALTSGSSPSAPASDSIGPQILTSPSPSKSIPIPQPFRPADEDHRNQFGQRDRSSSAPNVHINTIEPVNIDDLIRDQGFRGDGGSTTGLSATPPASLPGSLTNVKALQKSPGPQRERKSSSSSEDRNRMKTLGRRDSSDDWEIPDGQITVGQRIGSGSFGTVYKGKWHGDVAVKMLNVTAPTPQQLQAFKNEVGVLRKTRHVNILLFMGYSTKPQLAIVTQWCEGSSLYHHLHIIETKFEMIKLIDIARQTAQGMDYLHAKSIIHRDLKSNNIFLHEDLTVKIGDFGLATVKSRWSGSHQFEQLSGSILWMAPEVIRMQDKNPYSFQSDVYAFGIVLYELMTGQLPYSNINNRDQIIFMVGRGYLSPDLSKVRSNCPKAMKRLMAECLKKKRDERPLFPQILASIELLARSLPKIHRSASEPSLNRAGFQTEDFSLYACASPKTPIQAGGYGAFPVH

AKT3 = AKT3 (Homo sapiens, UniProt Q9Y243); details: 1 μM; Run 1, Run 2
Sequence of AKT3 (Q9Y243 whole entry): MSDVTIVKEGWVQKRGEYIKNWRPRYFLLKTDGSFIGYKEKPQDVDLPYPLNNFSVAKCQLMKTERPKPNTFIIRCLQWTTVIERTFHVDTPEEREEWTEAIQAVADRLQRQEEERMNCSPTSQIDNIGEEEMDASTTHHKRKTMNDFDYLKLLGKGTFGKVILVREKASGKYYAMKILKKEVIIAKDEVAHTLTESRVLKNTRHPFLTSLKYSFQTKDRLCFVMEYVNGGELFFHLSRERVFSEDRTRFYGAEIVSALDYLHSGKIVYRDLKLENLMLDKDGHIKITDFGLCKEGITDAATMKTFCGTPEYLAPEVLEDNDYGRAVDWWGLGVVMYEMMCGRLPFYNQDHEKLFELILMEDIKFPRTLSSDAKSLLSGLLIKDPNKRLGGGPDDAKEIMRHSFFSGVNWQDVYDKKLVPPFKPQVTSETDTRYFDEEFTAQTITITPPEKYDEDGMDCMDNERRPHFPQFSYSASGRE

VRK2 = VRK2 (Homo sapiens, UniProt Q86Y07); details: 1 μM; Run 1, Run 2
Sequence of VRK2 (Q86Y07 whole entry, species assumed): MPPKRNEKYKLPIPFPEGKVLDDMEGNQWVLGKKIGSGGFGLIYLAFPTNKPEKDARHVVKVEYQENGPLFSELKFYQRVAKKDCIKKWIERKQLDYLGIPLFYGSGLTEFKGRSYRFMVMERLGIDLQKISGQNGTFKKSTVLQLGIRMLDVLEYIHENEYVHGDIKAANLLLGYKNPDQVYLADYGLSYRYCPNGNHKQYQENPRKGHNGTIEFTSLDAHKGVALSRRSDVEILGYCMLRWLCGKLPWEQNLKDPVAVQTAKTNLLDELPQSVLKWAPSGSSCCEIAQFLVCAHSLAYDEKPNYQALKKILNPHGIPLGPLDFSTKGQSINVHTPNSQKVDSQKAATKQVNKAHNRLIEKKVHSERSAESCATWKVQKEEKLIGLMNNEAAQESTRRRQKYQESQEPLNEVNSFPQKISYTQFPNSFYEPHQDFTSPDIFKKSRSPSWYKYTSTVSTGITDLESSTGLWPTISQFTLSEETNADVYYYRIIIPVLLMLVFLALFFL

WNK2 = WNK2 (Homo sapiens, UniProt Q9Y3S1); details: 1 μM; Run 1, Run 2
c-MET = c-MET (Homo sapiens, UniProt P08581); experiment: biochemical; details: read-out: % enzyme activity, 1 μM; Run 1, Run 2
Sequence of c-MET (P08581 25-1390): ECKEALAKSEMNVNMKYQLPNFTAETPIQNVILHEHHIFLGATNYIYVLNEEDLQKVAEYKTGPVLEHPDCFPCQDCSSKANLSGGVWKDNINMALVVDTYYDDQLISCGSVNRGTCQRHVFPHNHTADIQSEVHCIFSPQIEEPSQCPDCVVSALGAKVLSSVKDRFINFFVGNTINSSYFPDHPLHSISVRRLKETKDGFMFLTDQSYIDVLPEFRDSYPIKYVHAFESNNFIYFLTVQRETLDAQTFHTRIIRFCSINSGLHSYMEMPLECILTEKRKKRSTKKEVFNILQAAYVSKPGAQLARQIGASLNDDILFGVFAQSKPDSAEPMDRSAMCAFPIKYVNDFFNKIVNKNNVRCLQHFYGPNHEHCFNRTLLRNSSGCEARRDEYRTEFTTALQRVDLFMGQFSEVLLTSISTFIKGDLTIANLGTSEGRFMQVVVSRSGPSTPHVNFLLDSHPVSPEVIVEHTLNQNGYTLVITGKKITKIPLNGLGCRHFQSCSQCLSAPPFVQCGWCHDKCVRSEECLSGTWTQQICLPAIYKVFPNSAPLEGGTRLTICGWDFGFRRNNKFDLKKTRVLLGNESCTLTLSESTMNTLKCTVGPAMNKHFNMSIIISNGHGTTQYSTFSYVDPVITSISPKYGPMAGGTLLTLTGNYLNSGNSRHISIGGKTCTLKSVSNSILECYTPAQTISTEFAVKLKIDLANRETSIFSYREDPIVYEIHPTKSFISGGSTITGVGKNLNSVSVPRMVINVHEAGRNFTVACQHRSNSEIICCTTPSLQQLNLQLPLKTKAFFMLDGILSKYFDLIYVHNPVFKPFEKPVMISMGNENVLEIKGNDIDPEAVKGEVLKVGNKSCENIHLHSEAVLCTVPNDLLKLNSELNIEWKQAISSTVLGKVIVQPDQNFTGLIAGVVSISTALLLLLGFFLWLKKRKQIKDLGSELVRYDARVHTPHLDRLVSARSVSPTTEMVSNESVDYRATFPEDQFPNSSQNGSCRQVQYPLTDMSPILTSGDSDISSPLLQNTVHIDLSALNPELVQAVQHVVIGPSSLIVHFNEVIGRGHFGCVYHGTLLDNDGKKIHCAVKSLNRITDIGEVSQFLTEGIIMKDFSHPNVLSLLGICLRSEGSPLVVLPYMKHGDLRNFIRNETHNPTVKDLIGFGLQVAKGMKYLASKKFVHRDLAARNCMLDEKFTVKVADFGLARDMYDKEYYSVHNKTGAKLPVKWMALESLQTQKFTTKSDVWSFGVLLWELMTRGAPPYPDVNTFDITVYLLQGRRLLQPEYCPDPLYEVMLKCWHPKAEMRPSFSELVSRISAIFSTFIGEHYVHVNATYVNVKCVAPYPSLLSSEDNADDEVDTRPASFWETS

CAMK2a = CAMK2a (Homo sapiens, UniProt Q9UQM7); experiment: biochemical; details: read-out: % enzyme activity, 1 μM; Run 1, Run 2
Sequence of CAMK2a (Q9UQM7 whole entry): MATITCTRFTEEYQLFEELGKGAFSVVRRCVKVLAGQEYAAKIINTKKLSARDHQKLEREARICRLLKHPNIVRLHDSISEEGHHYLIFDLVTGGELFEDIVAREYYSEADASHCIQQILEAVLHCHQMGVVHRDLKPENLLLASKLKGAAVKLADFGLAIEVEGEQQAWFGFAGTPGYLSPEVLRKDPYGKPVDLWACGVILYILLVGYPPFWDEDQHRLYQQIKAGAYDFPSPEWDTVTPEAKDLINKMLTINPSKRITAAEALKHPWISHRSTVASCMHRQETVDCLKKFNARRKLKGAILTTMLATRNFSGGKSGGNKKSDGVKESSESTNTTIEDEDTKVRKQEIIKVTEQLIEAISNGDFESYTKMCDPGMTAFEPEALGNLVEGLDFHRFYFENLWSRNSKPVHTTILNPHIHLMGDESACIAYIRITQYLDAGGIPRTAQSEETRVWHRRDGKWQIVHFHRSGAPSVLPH

HIPK1 = HIPK1 (Homo sapiens, UniProt Q86Z02); experiment: biochemical; details: read-out: % enzyme activity, 1 μM; Run 1, Run 2
IRAK1 = IRAK1 (Homo sapiens, UniProt P51617); experiment: biochemical; details: read-out: % enzyme activity, 1 μM; Run 1, Run 2
Sequence of IRAK1 (P51617 whole entry): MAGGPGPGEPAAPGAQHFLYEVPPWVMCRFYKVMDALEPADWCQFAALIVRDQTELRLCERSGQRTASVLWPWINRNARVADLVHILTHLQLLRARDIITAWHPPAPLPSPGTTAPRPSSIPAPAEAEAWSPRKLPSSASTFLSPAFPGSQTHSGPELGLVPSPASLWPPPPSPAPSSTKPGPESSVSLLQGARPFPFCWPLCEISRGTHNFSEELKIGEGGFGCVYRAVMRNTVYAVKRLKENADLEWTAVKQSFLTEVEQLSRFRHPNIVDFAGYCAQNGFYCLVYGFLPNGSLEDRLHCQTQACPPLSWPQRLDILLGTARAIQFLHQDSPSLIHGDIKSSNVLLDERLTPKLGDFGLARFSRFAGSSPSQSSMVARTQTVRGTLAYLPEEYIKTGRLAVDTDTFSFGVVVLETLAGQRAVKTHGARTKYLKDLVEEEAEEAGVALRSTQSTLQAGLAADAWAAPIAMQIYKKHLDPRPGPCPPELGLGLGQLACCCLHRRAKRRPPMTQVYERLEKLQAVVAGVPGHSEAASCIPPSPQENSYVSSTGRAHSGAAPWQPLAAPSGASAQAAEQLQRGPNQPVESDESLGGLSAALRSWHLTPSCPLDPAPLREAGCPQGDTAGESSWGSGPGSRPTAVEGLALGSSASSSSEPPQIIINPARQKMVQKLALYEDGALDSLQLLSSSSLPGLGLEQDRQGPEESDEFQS

MEKK6 = target: T2, MEKK6 (Homo sapiens, UniProt O95382); experiment: biochemical; details: read-out: % enzyme activity, 1 μM; Run 1, Run 2
T2 sequence (O95382 1-1288): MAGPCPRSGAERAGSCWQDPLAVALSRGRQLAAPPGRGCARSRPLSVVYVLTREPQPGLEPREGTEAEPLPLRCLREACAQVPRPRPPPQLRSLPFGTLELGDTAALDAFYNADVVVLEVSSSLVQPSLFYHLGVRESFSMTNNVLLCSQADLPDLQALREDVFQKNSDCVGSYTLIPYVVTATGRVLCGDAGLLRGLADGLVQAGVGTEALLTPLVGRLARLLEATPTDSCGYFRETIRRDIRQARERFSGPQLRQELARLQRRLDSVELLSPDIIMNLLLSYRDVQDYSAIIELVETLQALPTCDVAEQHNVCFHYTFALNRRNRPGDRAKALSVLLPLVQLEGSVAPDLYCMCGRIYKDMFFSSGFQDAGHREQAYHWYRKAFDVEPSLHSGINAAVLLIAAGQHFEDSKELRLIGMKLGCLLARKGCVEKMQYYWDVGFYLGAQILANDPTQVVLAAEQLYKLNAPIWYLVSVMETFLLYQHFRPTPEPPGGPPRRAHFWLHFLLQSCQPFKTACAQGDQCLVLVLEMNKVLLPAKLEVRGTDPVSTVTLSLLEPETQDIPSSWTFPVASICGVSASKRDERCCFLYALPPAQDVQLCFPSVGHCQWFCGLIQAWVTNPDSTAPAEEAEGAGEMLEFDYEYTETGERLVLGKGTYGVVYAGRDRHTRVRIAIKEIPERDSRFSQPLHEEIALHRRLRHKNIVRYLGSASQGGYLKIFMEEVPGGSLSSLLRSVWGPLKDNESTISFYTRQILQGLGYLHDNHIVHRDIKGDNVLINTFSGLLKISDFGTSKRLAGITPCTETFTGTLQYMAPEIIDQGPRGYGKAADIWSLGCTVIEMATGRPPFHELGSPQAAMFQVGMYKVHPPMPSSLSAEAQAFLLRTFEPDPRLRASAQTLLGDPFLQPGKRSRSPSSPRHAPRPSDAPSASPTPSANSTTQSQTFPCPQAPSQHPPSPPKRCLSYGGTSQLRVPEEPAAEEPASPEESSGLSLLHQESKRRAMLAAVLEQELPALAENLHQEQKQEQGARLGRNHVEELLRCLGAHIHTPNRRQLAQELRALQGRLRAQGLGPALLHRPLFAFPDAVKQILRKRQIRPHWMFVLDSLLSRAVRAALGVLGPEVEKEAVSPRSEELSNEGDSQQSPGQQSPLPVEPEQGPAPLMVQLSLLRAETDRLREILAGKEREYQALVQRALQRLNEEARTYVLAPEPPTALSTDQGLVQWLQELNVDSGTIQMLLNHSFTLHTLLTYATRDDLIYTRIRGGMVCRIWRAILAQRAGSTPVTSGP

NEK11 = target: T3, NEK11 (Homo sapiens, UniProt Q8NG66); experiment: biochemical; details: read-out: % enzyme activity, 1 μM; Run 1, Run 2
T3 sequence (Q8NG66 1-645): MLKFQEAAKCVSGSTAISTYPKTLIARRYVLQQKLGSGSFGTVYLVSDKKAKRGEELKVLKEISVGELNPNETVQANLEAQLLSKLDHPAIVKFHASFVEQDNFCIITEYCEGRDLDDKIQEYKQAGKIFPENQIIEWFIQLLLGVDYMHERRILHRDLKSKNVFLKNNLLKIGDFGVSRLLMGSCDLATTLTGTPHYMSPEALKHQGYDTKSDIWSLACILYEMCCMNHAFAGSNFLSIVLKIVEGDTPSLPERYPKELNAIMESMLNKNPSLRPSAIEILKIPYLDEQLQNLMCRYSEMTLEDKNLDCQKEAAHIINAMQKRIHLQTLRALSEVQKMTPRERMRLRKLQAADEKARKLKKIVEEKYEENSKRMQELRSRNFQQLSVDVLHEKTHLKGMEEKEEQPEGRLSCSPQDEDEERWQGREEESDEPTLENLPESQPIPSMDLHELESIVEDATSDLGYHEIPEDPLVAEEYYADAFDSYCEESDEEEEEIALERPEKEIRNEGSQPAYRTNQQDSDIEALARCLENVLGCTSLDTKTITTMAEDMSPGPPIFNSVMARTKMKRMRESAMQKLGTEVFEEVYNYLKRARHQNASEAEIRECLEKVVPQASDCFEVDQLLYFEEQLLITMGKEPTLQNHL

PKCtheta = PKCtheta (Homo sapiens, UniProt Q04759); experiment: biochemical; details: read-out: % enzyme activity, 1 μM; Run 1, Run 2
Sequence of PKCtheta (Q04759 whole entry): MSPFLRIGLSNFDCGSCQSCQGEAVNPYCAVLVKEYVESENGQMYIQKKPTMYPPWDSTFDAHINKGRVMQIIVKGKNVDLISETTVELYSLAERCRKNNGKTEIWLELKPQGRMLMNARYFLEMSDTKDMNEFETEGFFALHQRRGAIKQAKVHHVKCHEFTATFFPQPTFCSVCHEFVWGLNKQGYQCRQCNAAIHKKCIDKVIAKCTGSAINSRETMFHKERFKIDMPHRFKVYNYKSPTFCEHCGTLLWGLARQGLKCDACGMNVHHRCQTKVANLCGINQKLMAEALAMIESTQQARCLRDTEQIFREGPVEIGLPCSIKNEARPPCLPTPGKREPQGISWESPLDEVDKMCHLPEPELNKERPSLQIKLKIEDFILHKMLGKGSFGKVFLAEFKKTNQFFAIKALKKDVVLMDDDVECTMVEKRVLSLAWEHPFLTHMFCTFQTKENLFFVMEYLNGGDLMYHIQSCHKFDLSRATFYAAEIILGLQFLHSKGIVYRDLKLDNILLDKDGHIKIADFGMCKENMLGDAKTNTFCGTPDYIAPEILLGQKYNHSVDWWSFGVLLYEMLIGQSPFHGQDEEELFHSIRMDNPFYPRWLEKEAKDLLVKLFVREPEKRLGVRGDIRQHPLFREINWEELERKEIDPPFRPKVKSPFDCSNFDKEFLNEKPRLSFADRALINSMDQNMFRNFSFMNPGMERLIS

RON/MST1R = RON/MST1R (Homo sapiens, UniProt Q04912); experiment: biochemical; details: read-out: % enzyme activity, 1 μM; Run 1, Run 2

SMILES: COc1cc(-c2cncc(-c3ccc(N4CCN(C)CC4)cc3)c2C)cc(F)c1C(N)=O [Compound 26a, 2-Fluoro-6-methoxy-4-(4-methyl-5-(4-(4-methylpiperazin-1-yl)phenyl)pyridin-3-yl)benzamide]
- % enzyme activity at 1 μM (ALK5/TGFBR1): 82.5% and 82.3%
- % enzyme activity at 1 μM (MNK2): 48.2%
- % enzyme activity (BRAF): 28.77%
- remaining activity at 1 µM (BRAF): 28.8%
- % enzyme activity (AKT3): 94.73%
- % enzyme activity (VRK2): 87.47%
- % enzyme activity (WNK2): 95.09%
- remaining activity at 1 µM (c-MET): 100%
- remaining activity at 1 µM (CAMK2a): 85.5%
- remaining activity at 1 µM (HIPK1): 106%
- remaining activity at 1 µM (IRAK1): 103%
- remaining activity at 1 µM (MEKK6): 98.3%
- remaining activity at 1 µM (NEK11): 90.6%
- remaining activity at 1 µM (PKCtheta): 85.1%
- remaining activity at 1 µM (RON/MST1R): 98.7%

SMILES: COc1cc(-c2cncc(-c3ccc(N4C[C@@H](C)N(C)[C@@H](C)C4)cc3)c2C)cc(F)c1C(N)=O [Compound 26c, 2-Fluoro-6-methoxy-4-(4-methyl-5-(4-((3R,5S)-3,4,5-trimethylpiperazin-1-yl)phenyl)pyridin-3-yl)benzamide]
- % enzyme activity at 1 μM (ALK5/TGFBR1): 97.2% and 96.6%
- % enzyme activity at 1 μM (MNK2): 70.8% and 68.3%
- % enzyme activity (BRAF): 40.52%
- remaining activity at 1 µM (BRAF): 41.1%
- % enzyme activity (AKT3): 98.56%
- % enzyme activity (VRK2): 89.63%
- % enzyme activity (WNK2): 93.64%
- remaining activity at 1 µM (c-MET): 107%
- remaining activity at 1 µM (CAMK2a): 96.7%
- remaining activity at 1 µM (HIPK1): 99.9%
- remaining activity at 1 µM (IRAK1): 98.9%
- remaining activity at 1 µM (MEKK6): 95.9%
- remaining activity at 1 µM (NEK11): 91.9%
- remaining activity at 1 µM (PKCtheta): 87%
- remaining activity at 1 µM (RON/MST1R): 105%
